Results from publication PMC11279465, “Dual Inhibitors of P-gp and Carbonic Anhydrase XII (hCA XII) against Tumor Multidrug Resistance with Piperazine Scaffold” (Molecules, 2024).

What was measured:
hCA I = molecular target: T1, hCA I (Homo sapiens, UniProt P00915); test: CA inhibition, stopped-flow CO2 hydrase assay; type: biochemical; details: stopped-flow technique; incubation time 6 h; mean of 3 assays
T1 construct: made in house
Protocol: (§1) Four hCA isoforms were used in this assay: the cytosolic hCA I and II and the tumor-associated transmembrane hCA IX and XII isoforms. Acetazolamide (AAZ) was used as a standard inhibitor.
(§2) An SX.18MV-R Applied Photophysics (Oxford, UK) stopped-flow instrument has been used to assay the catalytic/inhibition of various CA isozymes. […] Saturated CO2 solutions in water at 25 °C were used as substrate. Stock solutions of inhibitors were prepared at a concentration of 10 μM (in DMSO-water 1:1, v/v) and dilutions up to 0.01 nM were carried out with the assay buffer mentioned above. […] Inhibitor and enzyme solutions were preincubated together for 6 h at room temperature prior to assay in order to allow for the formation of the E-I complex. […] The inhibition constants were obtained by non-linear least-squares methods using the Cheng–Prusoff equation, as reported earlier, and represent the mean from at least three different determinations.

hCA II = molecular target: T2, hCA II (Homo sapiens, UniProt P00918); test: CA inhibition, stopped-flow CO2 hydrase assay; type: biochemical; details: stopped-flow technique; incubation time 6 h; mean of 3 assays
T2 construct: made in house
Protocol: as §1, §2

hCA IX = molecular target: T3, hCA IX (Homo sapiens, UniProt Q16790); test: CA inhibition, stopped-flow CO2 hydrase assay; type: biochemical; details: stopped-flow technique; incubation time 6 h; mean of 3 assays
T3 construct: made in house
Protocol: as §1, §2

hCA XII = molecular target: T4, hCA XII (Homo sapiens, UniProt O43570); test: CA inhibition, stopped-flow CO2 hydrase assay; type: biochemical; details: stopped-flow technique; incubation time 6 h; mean of 3 assays
T4 construct: made in house
Protocol: as §1, §2

K562/DOX cells = test: Doxorubicin cytotoxicity enhancement assay (MTT); type: cell-based, human; details: 72 h
Protocol: K562 is a highly undifferentiated erythroleukemia cell line. The doxorubicin-resistant K562/DOX cells overexpress almost exclusively the transporter membrane protein P-gp.
K562/DOX cells were incubated for 72 h with different concentrations of doxorubicin in combination with 1 or 3 µM of all compounds. […] HT29, A549, HT29/DOX and A549/DOX cells were incubated for 48 h with 5 µM doxorubicin, alone or in combination with 1 or 3 µM of selected compounds. Cell viability of the cell lines was measured by the MTT assay, using a Synergy HT microplate spectrofluorometer (Bio-Tek Instruments, Winooski, VT, USA). The absorbance of untreated cells was considered 100%; results were expressed as a percentage of viable treated cells versus the control untreated cells.

A549/DOX cells = test: Intrinsic cytotoxicity (MTT); type: cell-based, human; details: compound alone at 1 µM; A549/DOX; 48 h
Protocol: (§3) All compounds were preliminarily studied to evaluate their intrinsic cytotoxicity at different concentrations (from 10 nM to 50 µM) in the parental HT29 and A549 and the resistant HT29/DOX and A549/DOX cells using the MTT assay.
(§4) The intrinsic toxicity of the studied compounds was determined by an MTT assay. K562 and K562/DOX were exposed for 72 h with compounds at 1 and 3 µM concentrations while HT29, A549, HT29/DOX and A549/DOX cells were incubated for 48 h with compounds used at different concentrations (from 10 nM to 50 µM). The percentage of growth compared to the untreated control was transformed into histograms with the GraphPad Prism 5 program. […]

HT29/DOX cells = test: Intrinsic cytotoxicity (MTT); type: cell-based, human; details: compound alone at 1 µM; HT29/DOX; 48 h
Protocol: as §3, §4

T4 sequence (O43570 25-354): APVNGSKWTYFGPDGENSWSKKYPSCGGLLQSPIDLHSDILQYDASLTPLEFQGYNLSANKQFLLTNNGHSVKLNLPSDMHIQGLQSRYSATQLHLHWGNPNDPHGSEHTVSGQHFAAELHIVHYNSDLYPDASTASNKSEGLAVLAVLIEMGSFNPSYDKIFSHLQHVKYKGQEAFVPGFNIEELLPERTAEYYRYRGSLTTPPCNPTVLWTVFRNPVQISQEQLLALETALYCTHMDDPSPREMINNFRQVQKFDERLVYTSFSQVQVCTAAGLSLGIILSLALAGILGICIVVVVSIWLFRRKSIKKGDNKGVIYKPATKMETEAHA
T1 sequence (P00915 whole entry): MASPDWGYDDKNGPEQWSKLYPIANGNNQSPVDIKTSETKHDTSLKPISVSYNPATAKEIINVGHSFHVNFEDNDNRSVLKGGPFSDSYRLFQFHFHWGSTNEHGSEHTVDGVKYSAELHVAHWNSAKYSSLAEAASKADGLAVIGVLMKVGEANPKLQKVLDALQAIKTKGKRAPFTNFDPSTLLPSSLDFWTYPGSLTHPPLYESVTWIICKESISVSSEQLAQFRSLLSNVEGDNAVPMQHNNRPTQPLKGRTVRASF

Row | SMILES | Ki (hCA I) [nM] | Ki (hCA II) [nM] | Ki (hCA IX) [nM] | Ki (hCA XII) [nM] | RF (Reversal Fold: IC50 of doxorubicin alone / in presence of modulator) (K562/DOX cells; compound at 1 µM) | RF (Reversal Fold: IC50 of doxorubicin alone / in presence of modulator) (K562/DOX cells; compound at 3 µM) | toxicity (A549/DOX cells) [%] | toxicity (HT29/DOX cells) [%]
1 | COc1cc(/C=C/CN2CCN(CCCCOc3ccc4ccc(=O)oc4c3)CC2)cc(OC)c1OC [Compound 3, (E)-7-(4-(4-(3-(3,4,5-Trimethoxyphenyl)allyl)piperazin-1-yl)butoxy)-2H-chromen-2-one] | > 10000 | > 10000 | 82 | 34.6 | 3.1 | 3.7 |  | 
2 | COc1cc(/C=C/CN2CCN(CCCCOc3ccc4c(C)cc(=O)oc4c3)CC2)cc(OC)c1OC [Compound 6, (E)-4-Methyl-7-(4-(4-(3-(3,4,5-trimethoxyphenyl)allyl)piperazin-1-yl)butoxy)-2H-chromen-2-one] | > 10000 | > 10000 | 58.9 | 44.8 | 6.3 | 6.7 |  | 
3 | COc1cc(/C=C/CN2CCN(CCCOc3ccc4oc(=O)cc(C)c4c3)CC2)cc(OC)c1OC [Compound 11, (E)-4-Methyl-6-(3-(4-(3-(3,4,5-trimethoxyphenyl)allyl)piperazin-1-yl)propoxy)-2H-chromen-2-one] | > 10000 | > 10000 | 302 | 441 | 2.4 | 4.1 |  | 
4 | COc1cc(CN2CCN(CCOc3ccc4c(C)cc(=O)oc4c3)CC2)cc(OC)c1OC [Compound 16, 4-Methyl-7-(2-(4-(3,4,5-trimethoxybenzyl)piperazin-1-yl)ethoxy)-2H-chromen-2-one] | > 10000 | > 10000 | 8.2 | 51.9 | 1.0 | 1.4 |  | 
5 | COc1cc(CN2CCN(CCCCOc3ccc4c(C)cc(=O)oc4c3)CC2)cc(OC)c1OC [Compound 18, 4-Methyl-7-(4-(4-(3,4,5-trimethoxybenzyl)piperazin-1-yl)butoxy)-2H-chromen-2-one] | > 10000 | > 10000 | 28.5 | 72.1 | 1.9 | 3.2 |  | 
6 | COc1cc(CN2CCN(CCCOc3ccc4oc(=O)ccc4c3)CC2)cc(OC)c1OC [Compound 20, 6-(3-(4-(3,4,5-Trimethoxybenzyl)piperazin-1-yl)propoxy)-2H-chromen-2-one] | > 10000 | > 10000 | 72 | 22.4 | 2.3 | 2.4 |  | 
7 | COc1cc(CN2CCN(CCCCOc3ccc4oc(=O)ccc4c3)CC2)cc(OC)c1OC [Compound 21, 6-(4-(4-(3,4,5-Trimethoxybenzyl)piperazin-1-yl)butoxy)-2H-chromen-2-one] | > 10000 | > 10000 | 50.3 | 15.9 | 3.9 | 4.1 |  | 
8 | COc1cc(CN2CCN(CCOc3ccc4oc(=O)cc(C)c4c3)CC2)cc(OC)c1OC [Compound 22, 4-Methyl-6-(2-(4-(3,4,5-trimethoxybenzyl)piperazin-1-yl)ethoxy)-2H-chromen-2-one] | > 10000 | > 10000 | 409 | 229 | 2.8 | 2.7 |  | 
9 | COc1cc(CN2CCN(CCCCOc3ccc4oc(=O)cc(C)c4c3)CC2)cc(OC)c1OC [Compound 24, 4-Methyl-6-(4-(4-(3,4,5-trimethoxybenzyl)piperazin-1-yl)butoxy)-2H-chromen-2-one] | > 10000 | > 10000 | 205 | 99.5 | 1.4 | 2.5 |  | 
10 | COc1ccc(C(CCCN2CCN(CCOc3ccc4c(C)cc(=O)oc4c3)CC2)c2ccc(OC)cc2)cc1 [Compound 28, 7-(2-(4-(4,4-Bis(4-methoxyphenyl)butyl)piperazin-1-yl)ethoxy)-4-methyl-2H-chromen-2-one] | > 10000 | > 10000 | 135 | 103 |  |  |  | 
11 | COc1ccc(C(CCCN2CCN(CCCCOc3ccc4c(C)cc(=O)oc4c3)CC2)c2ccc(OC)cc2)cc1 [Compound 30, 7-(4-(4-(4,4-Bis(4-methoxyphenyl)butyl)piperazin-1-yl)butoxy)-4-methyl-2H-chromen-2-one] | > 10000 | > 10000 | 124 | 82.4 | 7.7 |  |  | 
12 | COc1ccc(C(CCCN2CCN(CCOc3ccc4oc(=O)cc(C)c4c3)CC2)c2ccc(OC)cc2)cc1 [Compound 34, 6-(2-(4-(4,4-Bis(4-methoxyphenyl)butyl)piperazin-1-yl)ethoxy)-4-methyl-2H-chromen-2-one] | > 10000 | > 10000 | 666 | 851 | 5.7 | 14.3 |  | 

Second part, led by results:

Row | Ki (hCA I) [nM] | Ki (hCA II) [nM] | Ki (hCA IX) [nM] | Ki (hCA XII) [nM] | SMILES | RF (Reversal Fold: IC50 of doxorubicin alone / in presence of modulator) (K562/DOX cells; compound at 1 µM) | RF (Reversal Fold: IC50 of doxorubicin alone / in presence of modulator) (K562/DOX cells; compound at 3 µM) | toxicity (A549/DOX cells) [%] | toxicity (HT29/DOX cells) [%]
13 | > 10000 | > 10000 | 40.7 | 22.9 | COc1cc(/C=C/CN2CCN(CCCOc3ccc4oc(=O)ccc4c3)CC2)cc(OC)c1OC [Compound 8, (E)-6-(3-(4-(3-(3,4,5-Trimethoxyphenyl)allyl)piperazin-1-yl)propoxy)-2H-chromen-2-one] | 2.0 | 2.0 | ≥ 35 | ≥ 35
14 | > 10000 | > 10000 | 360 | 422 | COc1cc(/C=C/CN2CCN(CCOc3ccc4oc(=O)cc(C)c4c3)CC2)cc(OC)c1OC [Compound 10, (E)-4-Methyl-6-(2-(4-(3-(3,4,5-trimethoxyphenyl)allyl)piperazin-1-yl)ethoxy)-2H-chromen-2-one] | 1.0 | 1.4 |  | 
15 | > 10000 | > 10000 | 16.1 | 60.8 | COc1cc(CN2CCN(CCCOc3ccc4c(C)cc(=O)oc4c3)CC2)cc(OC)c1OC [Compound 17, 4-Methyl-7-(3-(4-(3,4,5-trimethoxybenzyl)piperazin-1-yl)propoxy)-2H-chromen-2-one] | 2.6 | 2.1 |  | 
16 | > 10000 | > 10000 | 242 | 304 | COc1cc(CN2CCN(CCCOc3ccc4oc(=O)cc(C)c4c3)CC2)cc(OC)c1OC [Compound 23, 4-Methyl-6-(3-(4-(3,4,5-trimethoxybenzyl)piperazin-1-yl)propoxy)-2H-chromen-2-one] | 1.6 | 1.8 |  | 
17 | > 10000 | > 10000 | 153 | 115 | COc1ccc(C(CCCN2CCN(CCCOc3ccc4ccc(=O)oc4c3)CC2)c2ccc(OC)cc2)cc1 [Compound 26, 7-(3-(4-(4,4-Bis(4-methoxyphenyl)butyl)piperazin-1-yl)propoxy)-2H-chromen-2-one] | 5.5 | 17.3 |  | 
18 | > 10000 | > 10000 | 115 | 90.7 | COc1ccc(C(CCCN2CCN(CCOc3ccc4oc(=O)ccc4c3)CC2)c2ccc(OC)cc2)cc1 [Compound 31, 6-(2-(4-(4,4-Bis(4-methoxyphenyl)butyl)piperazin-1-yl)ethoxy)-2H-chromen-2-one] | 3.0 | 11.4 |  | 
